US12297223B2, “Compounds” (GLAXOSMITHKLINE INTELLECTUAL PROPERTY DEVELOPMENT LIMITED, priority 2019, dated 2025)

Key:
FimH = molecular target: T1, FimH (Escherichia coli, UniProt Q1R2J4); assay: Hemagglutination inhibition (HAI) assay with UTI89 bacteria and guinea pig red blood cells; assay type: cell-based; settings: HAI titer (EC>90): concentration reducing bacterial agglutination of guinea pig red blood cells by greater than 90%; also: ranges in brackets are in nM
T1 construct: endogenous in cells; host or cells: E. coli UTI89 (whole bacteria)
Method: “HAI titer or EC>90” is that concentration of the FimH inhibitor/antagonist which reduces the bacterial agglutination of guinea pig red blood cells by greater than 90%.
The activities of the Examples 1-34 compounds above as FimH antagonists/inhibitors were obtained by the following assay(s), and results are provided in Table 1. Results not provided mean that the activities have not yet been tested.
Hemagglutination Inhibition Assay (HAI)
The hemagglutination inhibition (HAI) assay was performed with UTI89 bacteria and guinea pig red blood cells, as previously described (S. J. Hultgren, W. R. Schwan, A. J. Schaeffer, J. L. Duncan Infect. Immun. 1986, 54, 613-620 and Jarvis, C.; Han, Z.; Kalas, V.; Klein, R.; Pinkner, J. S.; Ford, B.; Binkley, J.; Cusumano, C. K.; Cusumano, Z.; Mydock-McGrane, L.; Hultgren, S. J.; Janetka, J. W., Chem Med Chem 2016, 11, 367-373). Values not listed were not tested.

[1] = Rat pharmacokinetics after IV infusion and oral dose (AUC oral, % F, Ue % PO); assay type: in vivo, Male Wistar Han rats; settings: for DNAUC oral h*uM: PO 5 mg/kg, dose normalized AUC in blood, n = 3; for bioavailability: male, Wistar Han, whole blood; for bioavailability / %F: oral bioavailability, PO 5 mg/kg vs IV infusion 1 mg/kg; for Ue% po: percentage of oral dose eliminated unchanged in urine (or estimate from iv urine fraction times oral bioavailability)
From the text: General Assays for Obtaining AUC Oral h*μm, % F, and Ue % PO Values
Male Wistar Han rats were purchased from Vital River Laboratory Animal Technology Co. Ltd (Beijing, China). The animals were approx. 6-8 weeks old with body weights of 200-300 g on the dosing date. The animals were housed in a 12-hour light/12-hour dark cycle environment and had free access to food and water. All animals were fed prior to dosing. Studies were approved by the Pharmaron Institutional Animal Care and Use Committee (IACUC).
Test article was administered as an intravenous infusion for 1 hour (1 mg/kg) at 5 mL/kg/h. After 48 h, animals received a single oral dose (5 mg/kg, free form) at a dose volume of 10 mL/kg, respectively. Blood samples were collected at various time points after IV infusion and PO administrations. Urine samples were collected at various time points after IV infusion and PO administrations (for some compounds).
Test article was dissolved in DMSO with vortexing and sonification to obtain a stock solution. An aliquot of the stock solution was mixed with 10% HP-β-CD in saline with vortexing to obtain a solution with concentration at 0.2 mg/mL of test article.
Test article was added into 1% Methyl Cellulose with vortexing and sonication to obtain a homogeneous suspension with concentration at 0.5 mg/mL of test article.
For IV infusion (1 mg/kg) administration, blood samples were collected from each animal at 0, 0.25, 0.5, 0.75, 1, 1.08, 1.25, 1.5, 1.75, 2, 3, 5, 8, 12, 24 hour post-dose.
For PO (5 mg/kg) administration, blood samples were collected from each animal at 0, 0.25, 0.5, 1, 1.5, 2, 3, 4, 6, 8, 12, 24 hour post-dose.
Blood samples (50 μL) were collected from each animal via jugular vein. These blood samples were placed into tubes containing K2EDTA. Whole blood was mixed with same volume of water and inverted several times. The blood samples were stored at −75±15° C. until analysis.
For IV infusion (1 mg/kg) administration, urine samples were collected from each animal at 0-4, 4-8, 8-12, 12-24 hour post-dose.
For PO (5 mg/kg) administration, urine samples were collected (for some compounds) from each animal at 0-4, 4-8, 8-12, 12-24 hour post-dose.
55 μL of standards, 55 μL of QC samples or 55 μL of unknown samples (50 μL of blood or urine with 5 μL 50% acetonitrile) were mixed to 200 μL of acetonitrile containing IS (dexamethasone) to precipitate proteins. Then the samples were vortexed for 30 sec. After centrifugation at 4° C., 4700 rpm for 30 min, and 5 μL of the supernatant was injected into the LC-MS/MS system for quantitative analysis.
Test article blood and urine concentrations for each animal following IV infusion at 1 mg/kg and PO at 5 mg/kg were used to calculate pharmacokinetic parameters by employing a non-compartmental analysis (Phoenix™ WinNonlin® 7.0). The linear trapezoidal algorithm was used for AUC calculation. • AUC oral h*μM: Area under the curve (AUC) of drug concentration in blood vs. time (units: h*μM) following oral administration • % F: Oral bioavailability (%) derived from the ratio of dose-normalized AUC following PO and IV administration • Ue % PO: Percentage of oral dose eliminated unchanged in urine or an estimater of that parameter generated from using the percentage of the iv dose eliminated in the urine times the oral bioavailability

Compound | HAI (FimH) | DNAUC oral h*uM [1] | bioavailability [1] | Ue% po [1] | %F [1]
C=C[C@H](c1ccc(-c2cncc(C#N)c2)cc1C)[C@H]1O[C@H](CO)[C@@H](O)[C@H](O)[C@@H]1O [Example 20] | “+++” (50-200) |  |  |  | 
CC[C@H](c1ccc(-c2cnc(C3CC3)cn2)cc1C)[C@H]1O[C@H](CO)[C@@H](O)[C@H](O)[C@@H]1O [Example 22] | “+++” (50-200) |  |  |  | 
Cc1cc(-c2ccc(C(F)(F)F)nn2)ccc1C(C)[C@H]1O[C@H](CO)[C@@H](O)[C@H](O)[C@@H]1O (stereo partly drawn) [Example 31] | “++++” (<50) |  |  |  | 
Cc1cc(-c2cncc(C(F)(F)F)c2)ccc1[C@@H](C)[C@H]1O[C@H](CO)[C@@H](O)[C@H](O)[C@@H]1O [Example 4, (2R,3S,4R,5S,6R)-2-(Hydroxymethyl)-6-((R)-1-(2-methyl-4-(5-(trifluoromethyl)pyridin-3-yl)phenyl)ethyl)tetrahydro-2H-pyran-3,4,5-triol] | “++++” (<50) | “++” (0.5 ≤ x ≤ h · μM) | > 30% | “+++” (>5%) | 
C=C[C@H](c1ccc(-c2cnc(C3CC3)cn2)cc1C)[C@H]1O[C@H](CO)[C@@H](O)[C@H](O)[C@@H]1O [Example 19] | “++++” (<50) | “+” (<0.5 h · μM) |  |  | 
Cc1cc(-c2cc(F)cc(F)c2)ccc1[C@@H](CO)[C@H]1O[C@H](CO)[C@@H](O)[C@H](O)[C@@H]1O [Example 12] | “+++” (50-200) |  |  |  | 
Cc1cc(-c2cc(F)c(Cl)c(F)c2)ccc1[C@@H](CO)[C@H]1O[C@H](CO)[C@@H](O)[C@H](O)[C@@H]1O [Example 7, (2R,3S,4R,5S,6R)-2-((S)-1-(4′-chloro-3′,5′-difluoro-3-methyl-[1,1′-biphenyl]-4-yl)-2-hydroxyethyl)-6-(hydroxymethyl)tetrahydro-2H-pyran-3,4,5-triol] | “++++” (<50) | “++” (0.5 ≤ x ≤ h · μM) | 10 to 30% | “++” (0.5 ≤ x ≤ 5%) | 
Cc1cc(-c2ccc(C(F)(F)F)cn2)ccc1[C@@H](C)[C@H]1O[C@H](CO)[C@@H](O)[C@H](O)[C@@H]1O [Example 27] | “+++” (50-200) |  |  |  | 
CC[C@H](c1ccc(-c2ccn(C)c(=O)c2)cc1C)[C@H]1O[C@H](CO)[C@@H](O)[C@H](O)[C@@H]1O [Example 16] | “+++” (50-200) | “+” (<0.5 h · μM) |  |  | 
C=C[C@H](c1ccc(-c2cc(F)cc(F)c2)cc1C)[C@H]1O[C@H](CO)[C@@H](O)[C@H](O)[C@@H]1O [Example 13] | “++” (201-1000) |  |  |  | 
(2R,3S,4R,5S,6R)-2-(Hydroxymethyl)-6-((R)-1-(2-methyl-4-(5-(trifluoromethyl)pyrazin-2-yl)phenyl)allyl)tetrahydro-2H-pyran-3,4,5-triol [Example 6] | “+++” (50-200) | “+” (<0.5 h · μM) |  |  | “++” (10 ≤ x ≤ 30%)
C[C@H](c1ccc(-c2cc(C(F)(F)F)ccn2)cc1C(F)(F)F)[C@H]1O[C@H](CO)[C@@H](O)[C@H](O)[C@@H]1O [Example 32] | “+++” (50-200) |  |  |  | 
Cc1cc(-c2cc(F)c(Cl)c(F)c2)ccc1[C@@H](CCO)[C@H]1O[C@H](CO)[C@@H](O)[C@H](O)[C@@H]1O [Example 14] | “++++” (<50) | “+” (<0.5 h · μM) |  |  | 
(2R,3S,4R,5S,6R)-2-(Hydroxymethyl)-6-((R)-1-(2-methyl-4-(5-(trifluoromethyl)pyrazin-2-yl)phenyl)propyl)tetrahydro-2H-pyran-3,4,5-triol [Example 5] | “+++” (50-200) | “+” (<0.5 h · μM) |  | “++” (0.5 ≤ x ≤ 5%) | “++” (10 ≤ x ≤ 30%)
C=C[C@H](c1ccc(-c2cc(F)c3nccnc3c2)cc1C)[C@H]1O[C@H](CO)[C@@H](O)[C@H](O)[C@@H]1O [Example 15] | “++++” (<50) | “+” (<0.5 h · μM) |  |  | 
CC[C@H](c1ccc(-c2cc(F)cc(C#N)c2)cc1C)[C@H]1O[C@H](CO)[C@@H](O)[C@H](O)[C@@H]1O [Example 17] |  | “+” (<0.5 h · μM) |  |  | 
C[C@H](c1ccc(-c2ccc(C(F)(F)F)cn2)cc1C(F)(F)F)[C@H]1O[C@H](CO)[C@@H](O)[C@H](O)[C@@H]1O [Example 33] | “+++” (50-200) |  |  |  | 
Cc1cc(-c2cc(F)cc(F)c2)ccc1[C@@H](CCO)[C@H]1O[C@H](CO)[C@@H](O)[C@H](O)[C@@H]1O [Example 11] | “+++” (50-200) |  |  |  | 
Cc1cc(-c2cncc(C(F)(F)F)n2)ccc1[C@@H](C)[C@H]1O[C@H](CO)[C@@H](O)[C@H](O)[C@@H]1O [Example 29] | “++++” (<50) | “+” (<0.5 h · μM) | 10 to 30% | “++” (0.5 ≤ x ≤ 5%) | 
Cc1cc(-c2cncc(F)c2)ccc1[C@@H](C)[C@H]1O[C@H](CO)[C@@H](O)[C@H](O)[C@@H]1O [Example 30] | “+++” (50-200) |  |  |  | 
C#C[C@@H](c1ccc(-c2cc(F)c(Cl)c(F)c2)cc1C)[C@H]1O[C@H](CO)[C@@H](O)[C@H](O)[C@@H]1O (single isomer, unassigned) [Example 34] | “+++” (50-200) |  |  |  | 
CC[C@H](c1ccc(-c2cncc(C#N)c2)cc1C)[C@H]1O[C@H](CO)[C@@H](O)[C@H](O)[C@@H]1O [Example 21] | “+++” (50-200) | “+” (<0.5 h · μM) |  |  | 
Cc1cc(-c2cc(C(F)(F)F)ccn2)ccc1[C@@H](C)[C@H]1O[C@H](CO)[C@@H](O)[C@H](O)[C@@H]1O (single isomer, unassigned) [Example 2] | “+++” (50-200) | “++” (0.5 ≤ x ≤ h · μM) | > 30% | “++” (0.5 ≤ x ≤ 5%) | 
C[C@H](c1ccc(-c2cnc(C(F)(F)F)cn2)cc1C(F)(F)F)[C@H]1O[C@H](CO)[C@@H](O)[C@H](O)[C@@H]1O [Example 3, (2R,3S,4R,5S,6R)-2-(hydroxymethyl)-6-((R)-1-(2-(trifluoromethyl)-4-(5-(trifluoromethyl)pyrazin-2-yl)phenyl)ethyl)tetrahydro-2H-pyran-3,4,5-triol] | “++++” (<50) | “+++” (>1 h · μM) | > 30% | “+++” (>5%) | 
Cc1cc(-c2cc(F)cc(F)c2)ccc1[C@@H](C)[C@H]1O[C@H](CO)[C@@H](O)[C@H](O)[C@@H]1O (single isomer, unassigned) [Example 28] | “+++” (50-200) |  |  |  | 
Cc1cc(-c2cnc(C(F)(F)F)cn2)ccc1[C@@H](C)[C@H]1O[C@H](CO)[C@@H](O)[C@H](O)[C@@H]1O [Example 1, (2R,3S,4R,5S,6R)-2-(Hydroxymethyl)-6-((R)-1-(2-methyl-4-(5-(trifluoromethyl)pyrazin-2-yl)phenyl)ethyl)tetrahydro-2H-pyran-3,4,5-triol] | “++++” (<50) | “++” (0.5 ≤ x ≤ h · μM) | > 30% | “+++” (>5%) | 
